Patent US12448363B2, “Kinase inhibitors” (Vidya Therapeutics, Inc., priority 2020, dated 2025)

Tests used:
[1] = Plasma and total brain concentrations at 1 h post a single oral administration to female C57BL/6 mice; assay type: in vivo; conditions: mouse, 1 h post single oral 10 mg/kg, LC-MS/MS, read-out: Brain:plasma ratio
Method: Determination of Plasma and Total Brain Concentrations at 1 h Post a Single Oral Administration of Test Compound to Female C57BL/6 Mice
The appropriate amount of test article was dissolved 10% dimethylacetamide (DMA)/90% (20% hydroxypropyl-b-cyclodextrin (HP-β-CD) w/v in water to obtain a final concentration of 1 mg/mL for oral dosing. Sonication, vortex, and homogenization was used as needed. Three female C57BL/6 mice aged 7-9 weeks (20-30 grams) were dosed by oral gavage 10 mg/kg solution of the test article.
Concentrations of representative test compounds in the plasma and brain samples (using plasma and brain homogenate standard curve for all samples appropriately) were analyzed using LC-MS/MS. With respect to the brain:plasma ratio, Table 11 lists the results as follows: • “A” denotes a ratio >0.5; • “B” denotes a ratio between 0.1 and 0.5; and • “C” denotes a ratio <0.1.

[2] = molecular target: BTK (Homo sapiens, UniProt Q06187); assay: Assay to determine activity against BTK (EZ reader, FLPeptide); assay type: biochemical; parameters: purchased Carna; conditions: ATP (1 mM), BTK (2 nM), room temperature for 90 minutes
Chain of BTK (Q06187 whole entry): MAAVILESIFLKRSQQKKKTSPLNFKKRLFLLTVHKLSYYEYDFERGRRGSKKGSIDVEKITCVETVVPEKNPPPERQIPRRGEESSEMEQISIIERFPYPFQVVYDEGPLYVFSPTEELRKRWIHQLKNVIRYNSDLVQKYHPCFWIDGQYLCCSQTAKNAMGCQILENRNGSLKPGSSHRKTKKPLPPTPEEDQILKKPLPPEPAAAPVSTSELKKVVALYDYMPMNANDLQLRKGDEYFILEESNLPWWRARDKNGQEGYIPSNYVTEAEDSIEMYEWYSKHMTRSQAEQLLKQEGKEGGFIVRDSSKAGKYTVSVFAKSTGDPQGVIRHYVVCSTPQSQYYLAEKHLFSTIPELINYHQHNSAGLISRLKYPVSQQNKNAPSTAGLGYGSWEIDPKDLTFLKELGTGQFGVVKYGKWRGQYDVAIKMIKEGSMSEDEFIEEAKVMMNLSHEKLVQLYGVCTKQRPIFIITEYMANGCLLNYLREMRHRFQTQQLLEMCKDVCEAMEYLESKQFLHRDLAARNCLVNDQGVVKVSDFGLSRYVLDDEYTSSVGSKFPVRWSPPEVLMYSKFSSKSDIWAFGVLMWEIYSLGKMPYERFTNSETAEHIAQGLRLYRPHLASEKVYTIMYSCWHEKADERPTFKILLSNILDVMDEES
Summary of the method: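 Human BTK (2 nM) phosphorylated FLPeptide (1.5 uM) with 1 mM ATP in 50 mM HEPES pH7.5, 10 mM MgCl2, 2 mM DTT, 1 mM EGTA, 0.01% Brij-35, 0.05% BSA; 11-point 3-fold compound dilutions. After 90 min at room temperature, EDTA stop; conversion ratio read on EZ reader, IC50 from curve fit with free top and bottom.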

Kp at 1 h [1]	IC50 [2] [nM]	Compound
< 0.1	10 to 100	C=CC(=O)N1CCC2CCN(c3c(F)cc(C(N)=O)c4[nH]c(C)c(C)c34)CC21 (single isomer, unassigned) [Compound 32b, 4-(1-acryloyloctahydro-6H-pyrrolo[2,3-c]pyridin-6-yl)-5-fluoro-2,3-dimethyl-1H-indole-7-carboxamide]
0.1 to 0.5	< 10	C=CC(=O)N1CCc2c(-c3c(F)cc(C(N)=O)c4[nH]c(C)c(Cl)c34)cccc2C1C (racemic) [Compound 22a, 4-(2-acryloyl-1-methyl-1,2,3,4-tetrahydroisoquinolin-5-yl)-3-chloro-5-fluoro-2-methyl-1H-indole-7-carboxamide]
0.1 to 0.5	< 10	C=CC(=O)N1CCc2c(cccc2-c2c(F)cc(C(N)=O)c3[nH]c(C)c(Cl)c23)C1 (single isomer, unassigned) [Compound 20b]
0.1 to 0.5	10 to 100	C=CC(=O)N1CCC2CCN(c3c(F)cc(C(N)=O)c4[nH]c(C)c(Cl)c34)CC21 (single isomer, unassigned) [Compound 29a, 4-(1-acryloyloctahydro-6H-pyrrolo[2,3-c]pyridin-6-yl)-3-chloro-5-fluoro-2-methyl-1H-indole-7-carboxamide]

The next lines start with the compound.

Compound	Kp at 1 h [1]	IC50 [2] [nM]
C=CC(=O)N1CCC=C(c2c(F)cc(C(N)=O)c3[nH]c(C)c(Cl)c23)C1 [Compound 1, 4-(1-acryloyl-1,2,5,6-tetrahydropyridin-3-yl)-3-chloro-5-fluoro-2-methyl-1H-indole-7-carboxamide]	< 0.1	< 10
C=CC(=O)N1CCC[C@@H](c2c(F)cc(C(N)=O)c3[nH]c(C)c(Cl)c23)C1 [Compound 2a, (S)-4-(1-acryloylpiperidin-3-yl)-3-chloro-5-fluoro-2-methyl-1H-indole-7-carboxamide]	0.1 to 0.5	< 10
C=CC(=O)N1CCC[C@@H](c2c(F)c(F)c(C(N)=O)c3[nH]c(C)c(Cl)c23)C1 [Compound 16, (S)-4-(1-acryloylpiperidin-3-yl)-3-chloro-5,6-difluoro-2-methyl-1H-indole-7-carboxamide]	0.1 to 0.5	< 10
C=CC(=O)N1CCC[C@@H](c2c(F)c(F)c(C(N)=O)c3[nH]c(C)c(F)c23)C1 [Compound 6b, (S)-4-(1-acryloylpiperidin-3-yl)-3,5,6-trifluoro-2-methyl-1H-indole-7-carboxamide]	0.1 to 0.5	< 10
CC#CC(=O)N[C@H]1C[C@@H](F)CN(c2c(F)cc(C(N)=O)c3[nH]c(C)c(C)c23)C1 [Compound 33, 4-((3S,5R)-3-(but-2-ynamido)-5-fluoropiperidin-1-yl)-5-fluoro-2,3-dimethyl-1H-indole-7-carboxamide]	< 0.1	< 10
CC#CC(=O)N[C@H]1C[C@@H](F)CN(c2c(F)cc(C(N)=O)c3[nH]c(C)c(Cl)c23)C1 [Compound 27, 4-((3S,5R)-3-(but-2-ynamido)-5-fluoropiperidin-1-yl)-3-chloro-5-fluoro-2-methyl-1H-indole-7-carboxamide]	0.1 to 0.5	< 10
C=CC(=O)N1CCC2CCN(c3c(F)cc(C(N)=O)c4[nH]c(C)c(Cl)c34)CC21 (racemic) [Compound 29, 4-(1-acryloyloctahydro-6H-pyrrolo[2,3-c]pyridin-6-yl)-3-chloro-5-fluoro-2-methyl-1H-indole-7-carboxamide]	0.1 to 0.5	10 to 100
CC#CC(=O)N1CCCC2CN(c3c(F)cc(C(N)=O)c4[nH]c(C)c(Cl)c34)CC21 (stereo not shown) [Compound 40, 4-(1-(but-2-ynoyl)octahydro-6H-pyrrolo[3,4-b]pyridin-6-yl)-3-chloro-5-fluoro-2-methyl-1H-indole-7-carboxamide]	> 0.5	< 10
C=CC(=O)N1CCC[C@H](c2c(F)c(F)c(C(N)=O)c3[nH]c(C)c(F)c23)C1 [Compound 6a, (R)-4-(1-acryloylpiperidin-3-yl)-3,5,6-trifluoro-2-methyl-1H-indole-7-carboxamide]	0.1 to 0.5	< 10
CC#CC(=O)N[C@H]1C[C@H](F)CN(c2c(F)cc(C(N)=O)c3[nH]c(C)c(C)c23)C1 [Compound 35, 4-((3S,5S)-3-(but-2-ynamido)-5-fluoropiperidin-1-yl)-5-fluoro-2,3-dimethyl-1H-indole-7-carboxamide]	< 0.1	< 10
